Data as given in ChEMBL document CHEMBL4706518, “Discovery of MGS0274, an ester prodrug of a metabotropic glutamate receptor 2/3 agonist with improved oral bioavailability” (Eur J Med Chem, 2020).
The source made the active and inactive calls. The rule behind the calls is not given here.

Legend:
[1] = biological target: Alpha-2C adrenergic receptor (Homo sapiens) (UniProt P18825); experiment: Binding affinity to alpha2C adrenoreceptor (unknown origin) 10 umol/L by radioligand binding assay; settings: dose 10.0 µmol/L
[2] = biological target: Melatonin receptor type 1A (Homo sapiens) (UniProt P48039); experiment: Binding affinity to MT1 receptor (unknown origin) 10 umol/L by radioligand binding assay; settings: dose 10.0 µmol/L
[3] = biological target: Kappa-type opioid receptor (Homo sapiens) (UniProt P41145); experiment: Binding affinity to kappa receptor (unknown origin) 10 umol/L by radioligand binding assay; settings: dose 10.0 µmol/L
[4] = biological target: Endothelin-1 receptor (Homo sapiens) (UniProt P25101); experiment: Binding affinity to ETA receptor (unknown origin) 10 umol/L by radioligand binding assay; settings: dose 10.0 µmol/L
Homo sapiens [5] = organism: Homo sapiens; experiment: Binding affinity to Voltage-dependent N-type calcium channel (unknown origin) 10 umol/L by radioligand binding assay; settings: dose 10.0 µmol/L
Homo sapiens [6] = organism: Homo sapiens; experiment: Binding affinity to Potassium voltage-gated channel (unknown origin) 10 umol/L by radioligand binding assay; settings: dose 10.0 µmol/L
[7] = biological target: D(3) dopamine receptor (Homo sapiens) (UniProt P35462); experiment: Binding affinity to D3 receptor (unknown origin) 10 umol/L by radioligand binding assay; settings: dose 10.0 µmol/L
[8] = biological target: Muscarinic acetylcholine receptor M1 (Homo sapiens) (UniProt P11229); experiment: Binding affinity to muscarinic M1 (unknown origin) 10 umol/L by radioligand binding assay; settings: dose 10.0 µmol/L
Homo sapiens [9] = organism: Homo sapiens; experiment: Binding affinity to IP3 receptor (unknown origin) 10 umol/L by radioligand binding assay; settings: dose 10.0 µmol/L
Homo sapiens [10] = organism: Homo sapiens; experiment: Binding affinity to GABAA receptor BZ central (unknown origin) 10 umol/L by radioligand binding assay; settings: dose 10.0 µmol/L
Homo sapiens [11] = organism: Homo sapiens; experiment: Binding affinity to GABAB (unknown origin) 10 umol/L by radioligand binding assay; settings: dose 10.0 µmol/L
Homo sapiens [12] = organism: Homo sapiens; experiment: Binding affinity to bombesin receptor (unknown origin) 10 umol/L by radioligand binding assay; settings: dose 10.0 µmol/L
[13] = biological target: Alpha-1B adrenergic receptor (Homo sapiens) (UniProt P35368); experiment: Binding affinity to alpha1B adrenoreceptor (unknown origin) 10 umol/L by radioligand binding assay; settings: dose 10.0 µmol/L
[14] = biological target: Substance-K receptor (Homo sapiens) (UniProt P21452); experiment: Binding affinity to NK2 receptor (unknown origin) 10 umol/L by radioligand binding assay; settings: dose 10.0 µmol/L
[15] = biological target: Corticotropin-releasing factor receptor 1 (Homo sapiens) (UniProt P34998); experiment: Binding affinity to CRF1(unknown origin) 10 umol/L by radioligand binding assay; settings: dose 10.0 µmol/L
[16] = biological target: Vasopressin V2 receptor (Homo sapiens) (UniProt P30518); experiment: Binding affinity to Vasopressin V2 receptor (unknown origin) 10 umol/L by radioligand binding assay; settings: dose 10.0 µmol/L
[17] = biological target: Mu-type opioid receptor (Homo sapiens) (UniProt P35372); experiment: Binding affinity to mu receptor (unknown origin) 10 umol/L by radioligand binding assay; settings: dose 10.0 µmol/L
[18] = biological target: Adenosine receptor A2a (Homo sapiens) (UniProt P29274); experiment: Binding affinity to A2a receptor (unknown origin) at 10 umol/L by radioligand binding assay; settings: dose 10.0 µmol/L
[19] = biological target: Androgen receptor (Homo sapiens) (UniProt P10275); experiment: Binding affinity to androgen receptor (unknown origin) 10 umol/L by radioligand binding assay; settings: dose 10.0 µmol/L
[20] = biological target: Cysteinyl leukotriene receptor 1 (Homo sapiens) (UniProt Q9Y271); experiment: Binding affinity to Leukotriene D4 receptor (unknown origin) 10 umol/L by radioligand binding assay; settings: dose 10.0 µmol/L
[21] = biological target: Nociceptin receptor (Homo sapiens) (UniProt P41146); experiment: Binding affinity to ORL1 receptor (unknown origin) 10 umol/L by radioligand binding assay; settings: dose 10.0 µmol/L
[22] = biological target: Muscarinic acetylcholine receptor M2 (Homo sapiens) (UniProt P08172); experiment: Binding affinity to muscarinic M2 (unknown origin) 10 umol/L by radioligand binding assay; settings: dose 10.0 µmol/L
[23] = biological target: Neuropeptide Y receptor type 2 (Homo sapiens) (UniProt P49146); experiment: Binding affinity to Y2 receptor (unknown origin) 10 umol/L by radioligand binding assay; settings: dose 10.0 µmol/L
[24] = biological target: Neuropeptide Y receptor type 1 (Homo sapiens) (UniProt P25929); experiment: Binding affinity to Y1 receptor (unknown origin) 10 umol/L by radioligand binding assay; settings: dose 10.0 µmol/L
[25] = biological target: Prostaglandin E2 receptor EP2 subtype (Homo sapiens) (UniProt P43116); experiment: Binding affinity to Prostanoid EP2 receptor (unknown origin) 10 umol/L by radioligand binding assay; settings: dose 10.0 µmol/L
Homo sapiens [26] = organism: Homo sapiens; experiment: Binding affinity to NMDA receptor agonist site (unknown origin) 10 umol/L by radioligand binding assay; settings: dose 10.0 µmol/L
[27] = biological target: Glucocorticoid receptor (Homo sapiens) (UniProt P04150); experiment: Binding affinity to glucocorticoid receptor (unknown origin) 10 umol/L by radioligand binding assay; settings: dose 10.0 µmol/L
Homo sapiens [28] = organism: Homo sapiens; experiment: Binding affinity to estrogen receptor (unknown origin) 10 umol/L by radioligand binding assay; settings: dose 10.0 µmol/L
[29] = biological target: Substance-P receptor (Homo sapiens) (UniProt P25103); experiment: Binding affinity to NK1 receptor (unknown origin) 10 umol/L by radioligand binding assay; settings: dose 10.0 µmol/L
[30] = biological target: Muscarinic acetylcholine receptor M5 (Homo sapiens) (UniProt P08912); experiment: Binding affinity to muscarinic M5 (unknown origin) 10 umol/L by radioligand binding assay; settings: dose 10.0 µmol/L
[31] = biological target: 5-hydroxytryptamine receptor 2A (Homo sapiens) (UniProt P28223); experiment: Binding affinity to 5-HT2A receptor (unknown origin) 10 umol/L by radioligand binding assay; settings: dose 10.0 µmol/L
Homo sapiens [32] = organism: Homo sapiens; experiment: Binding affinity to Small conductance calcium-activated potassium channel (unknown origin) 10 umol/L by radioligand binding assay; settings: dose 10.0 µmol/L
[33] = biological target: Sodium-dependent dopamine transporter (Homo sapiens) (UniProt Q01959); experiment: Binding affinity to dopamine transporter (unknown origin) 10 umol/L by radioligand binding assay; settings: dose 10.0 µmol/L
[34] = biological target: Muscarinic acetylcholine receptor M4 (Homo sapiens) (UniProt P08173); experiment: Binding affinity to muscarinic M4 (unknown origin) 10 umol/L by radioligand binding assay; settings: dose 10.0 µmol/L
Homo sapiens [35] = organism: Homo sapiens; experiment: Binding affinity to glycine receptor strychnine-sensitive binding site (unknown origin) 10 umol/L by radioligand binding assay; settings: dose 10.0 µmol/L
Homo sapiens [36] = organism: Homo sapiens; experiment: Binding affinity to ATP-sensitive inward rectifier potassium channel (unknown origin) 10 umol/L by radioligand binding assay; settings: dose 10.0 µmol/L
[37] = Lipophilicity, logD of compound in n-octanol and phosphate buffered saline at 2 mg after 1.5 hrs by HPLC based shake flask method; type: physicochemical
[38] = biological target: Adenosine receptor A1 (Homo sapiens) (UniProt P30542); experiment: Binding affinity to A1 receptor (unknown origin) at 10 umol/L by radioligand binding assay; settings: dose 10.0 µmol/L
[39] = biological target: Alpha-2B adrenergic receptor (Homo sapiens) (UniProt P18089); experiment: Binding affinity to alpha2B adrenoreceptor (unknown origin) 10 umol/L by radioligand binding assay; settings: dose 10.0 µmol/L
[40] = biological target: B1 bradykinin receptor (Homo sapiens) (UniProt P46663); experiment: Binding affinity to B1 receptor (unknown origin) 10 umol/L by radioligand binding assay; settings: dose 10.0 µmol/L
[41] = biological target: Sigma intracellular receptor 2 (Homo sapiens) (UniProt Q5BJF2); experiment: Binding affinity to sigma2 receptor (unknown origin) 10 umol/L by radioligand binding assay; settings: dose 10.0 µmol/L
[42] = biological target: 5-hydroxytryptamine receptor 3A (Homo sapiens) (UniProt P46098); experiment: Binding affinity to 5-HT3 receptor (unknown origin) 10 umol/L by radioligand binding assay; settings: dose 10.0 µmol/L
[43] = biological target: Neuromedin-K receptor (Homo sapiens) (UniProt P29371); experiment: Binding affinity to NK3 receptor (unknown origin) 10 umol/L by radioligand binding assay; settings: dose 10.0 µmol/L
Neuromedin-K receptor (Homo sapiens), sequence (P29371 whole entry): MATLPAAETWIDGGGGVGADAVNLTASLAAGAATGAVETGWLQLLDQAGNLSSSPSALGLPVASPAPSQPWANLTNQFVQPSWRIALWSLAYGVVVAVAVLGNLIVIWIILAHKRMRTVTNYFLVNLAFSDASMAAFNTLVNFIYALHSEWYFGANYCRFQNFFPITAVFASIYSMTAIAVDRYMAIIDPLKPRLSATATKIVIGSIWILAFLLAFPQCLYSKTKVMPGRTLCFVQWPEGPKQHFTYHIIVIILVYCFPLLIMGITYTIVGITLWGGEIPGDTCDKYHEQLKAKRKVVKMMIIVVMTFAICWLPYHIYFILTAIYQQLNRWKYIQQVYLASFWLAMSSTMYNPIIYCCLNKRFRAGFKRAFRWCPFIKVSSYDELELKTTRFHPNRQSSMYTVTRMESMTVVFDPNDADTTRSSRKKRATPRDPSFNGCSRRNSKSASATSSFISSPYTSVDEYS

5-hydroxytryptamine receptor 3A (Homo sapiens), sequence (P46098 whole entry): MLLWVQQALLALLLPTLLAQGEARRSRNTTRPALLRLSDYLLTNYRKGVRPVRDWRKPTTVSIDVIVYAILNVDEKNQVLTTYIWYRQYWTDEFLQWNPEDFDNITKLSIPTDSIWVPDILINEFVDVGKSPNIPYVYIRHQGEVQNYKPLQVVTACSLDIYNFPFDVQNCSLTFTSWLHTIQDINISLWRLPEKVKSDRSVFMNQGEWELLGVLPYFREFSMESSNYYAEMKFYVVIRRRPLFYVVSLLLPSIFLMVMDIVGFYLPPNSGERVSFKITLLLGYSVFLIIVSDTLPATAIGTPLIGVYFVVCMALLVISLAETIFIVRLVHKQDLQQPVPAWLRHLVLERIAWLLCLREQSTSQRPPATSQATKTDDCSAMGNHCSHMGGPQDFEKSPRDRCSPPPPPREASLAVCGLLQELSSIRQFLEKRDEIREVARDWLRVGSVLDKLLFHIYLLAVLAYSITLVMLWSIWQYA
Adenosine receptor A1 (Homo sapiens), sequence (P30542 whole entry): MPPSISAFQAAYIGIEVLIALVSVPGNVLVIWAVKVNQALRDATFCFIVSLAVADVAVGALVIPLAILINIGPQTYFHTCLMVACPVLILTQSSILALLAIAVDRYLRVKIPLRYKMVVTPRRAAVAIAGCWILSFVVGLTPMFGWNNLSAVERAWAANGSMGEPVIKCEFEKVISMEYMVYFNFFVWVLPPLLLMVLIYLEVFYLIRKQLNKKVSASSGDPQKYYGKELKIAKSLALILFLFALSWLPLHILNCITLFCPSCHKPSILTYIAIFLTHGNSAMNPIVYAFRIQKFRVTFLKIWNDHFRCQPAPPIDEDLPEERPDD
Melatonin receptor type 1A (Homo sapiens), sequence (P48039 whole entry): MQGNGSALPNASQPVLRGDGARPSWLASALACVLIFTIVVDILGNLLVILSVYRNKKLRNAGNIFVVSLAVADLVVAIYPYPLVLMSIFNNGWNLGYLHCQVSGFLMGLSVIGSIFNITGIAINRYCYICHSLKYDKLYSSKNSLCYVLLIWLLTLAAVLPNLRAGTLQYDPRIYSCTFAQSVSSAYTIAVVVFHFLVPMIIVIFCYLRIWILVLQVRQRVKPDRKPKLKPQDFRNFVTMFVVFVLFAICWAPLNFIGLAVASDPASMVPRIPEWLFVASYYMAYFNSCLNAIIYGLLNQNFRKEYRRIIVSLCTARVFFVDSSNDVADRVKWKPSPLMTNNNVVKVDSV
Cysteinyl leukotriene receptor 1 (Homo sapiens), sequence (Q9Y271 whole entry): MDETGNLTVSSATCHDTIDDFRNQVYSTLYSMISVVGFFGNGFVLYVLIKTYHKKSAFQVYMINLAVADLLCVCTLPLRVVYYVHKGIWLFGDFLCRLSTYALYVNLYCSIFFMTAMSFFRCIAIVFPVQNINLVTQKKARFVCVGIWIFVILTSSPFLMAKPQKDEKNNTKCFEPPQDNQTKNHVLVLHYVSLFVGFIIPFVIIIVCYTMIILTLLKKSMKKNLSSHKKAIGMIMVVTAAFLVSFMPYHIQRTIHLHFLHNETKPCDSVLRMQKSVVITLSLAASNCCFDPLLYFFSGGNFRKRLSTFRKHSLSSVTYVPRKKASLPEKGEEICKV
Kappa-type opioid receptor (Homo sapiens), sequence (P41145 whole entry): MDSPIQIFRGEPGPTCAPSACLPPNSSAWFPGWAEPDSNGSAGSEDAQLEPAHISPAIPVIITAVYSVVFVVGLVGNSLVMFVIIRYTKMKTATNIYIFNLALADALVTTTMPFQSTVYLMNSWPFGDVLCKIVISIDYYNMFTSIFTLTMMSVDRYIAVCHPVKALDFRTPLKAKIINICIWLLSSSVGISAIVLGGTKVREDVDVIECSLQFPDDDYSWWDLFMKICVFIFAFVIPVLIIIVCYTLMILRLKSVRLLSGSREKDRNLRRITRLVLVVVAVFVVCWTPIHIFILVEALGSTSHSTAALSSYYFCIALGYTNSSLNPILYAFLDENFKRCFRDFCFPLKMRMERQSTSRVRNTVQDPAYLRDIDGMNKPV
Alpha-1B adrenergic receptor (Homo sapiens), sequence (P35368 whole entry): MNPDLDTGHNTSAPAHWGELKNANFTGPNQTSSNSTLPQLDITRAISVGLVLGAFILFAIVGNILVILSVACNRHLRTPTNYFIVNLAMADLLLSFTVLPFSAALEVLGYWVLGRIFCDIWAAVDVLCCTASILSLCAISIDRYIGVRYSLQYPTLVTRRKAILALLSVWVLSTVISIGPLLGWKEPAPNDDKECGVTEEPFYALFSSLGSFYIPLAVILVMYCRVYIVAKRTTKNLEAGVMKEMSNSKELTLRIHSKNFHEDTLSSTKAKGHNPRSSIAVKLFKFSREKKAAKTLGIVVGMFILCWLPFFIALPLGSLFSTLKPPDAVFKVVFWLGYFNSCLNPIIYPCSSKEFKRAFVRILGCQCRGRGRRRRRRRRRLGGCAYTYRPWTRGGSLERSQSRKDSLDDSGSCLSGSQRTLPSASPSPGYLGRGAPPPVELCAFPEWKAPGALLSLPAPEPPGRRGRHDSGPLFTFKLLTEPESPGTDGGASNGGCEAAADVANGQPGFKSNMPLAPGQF
Adenosine receptor A2a (Homo sapiens), sequence (P29274 whole entry): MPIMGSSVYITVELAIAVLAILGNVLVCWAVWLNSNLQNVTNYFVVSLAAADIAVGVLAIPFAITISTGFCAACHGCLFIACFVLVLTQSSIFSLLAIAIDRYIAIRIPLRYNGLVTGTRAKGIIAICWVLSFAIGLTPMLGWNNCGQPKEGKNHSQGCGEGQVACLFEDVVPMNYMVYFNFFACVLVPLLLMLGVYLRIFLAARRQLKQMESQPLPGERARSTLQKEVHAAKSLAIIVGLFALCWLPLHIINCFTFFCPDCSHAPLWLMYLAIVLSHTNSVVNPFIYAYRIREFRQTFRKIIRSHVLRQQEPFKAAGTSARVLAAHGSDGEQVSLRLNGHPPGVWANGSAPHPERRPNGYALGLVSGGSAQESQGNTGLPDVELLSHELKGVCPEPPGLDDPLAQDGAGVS
Muscarinic acetylcholine receptor M5 (Homo sapiens), sequence (P08912 whole entry): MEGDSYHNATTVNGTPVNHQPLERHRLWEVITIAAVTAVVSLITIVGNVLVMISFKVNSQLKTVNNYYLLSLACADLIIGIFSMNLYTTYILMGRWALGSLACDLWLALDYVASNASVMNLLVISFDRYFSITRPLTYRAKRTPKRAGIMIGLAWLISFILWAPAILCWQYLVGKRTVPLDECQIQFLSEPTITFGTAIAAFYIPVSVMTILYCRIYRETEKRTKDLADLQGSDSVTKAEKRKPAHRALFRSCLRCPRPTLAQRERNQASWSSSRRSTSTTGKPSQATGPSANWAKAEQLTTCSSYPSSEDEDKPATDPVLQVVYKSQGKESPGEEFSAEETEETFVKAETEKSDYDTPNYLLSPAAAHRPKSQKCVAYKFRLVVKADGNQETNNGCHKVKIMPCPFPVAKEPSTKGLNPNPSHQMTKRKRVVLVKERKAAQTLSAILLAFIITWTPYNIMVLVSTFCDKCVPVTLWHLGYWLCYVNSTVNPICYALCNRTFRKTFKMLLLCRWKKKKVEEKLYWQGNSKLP
Neuropeptide Y receptor type 2 (Homo sapiens), sequence (P49146 whole entry): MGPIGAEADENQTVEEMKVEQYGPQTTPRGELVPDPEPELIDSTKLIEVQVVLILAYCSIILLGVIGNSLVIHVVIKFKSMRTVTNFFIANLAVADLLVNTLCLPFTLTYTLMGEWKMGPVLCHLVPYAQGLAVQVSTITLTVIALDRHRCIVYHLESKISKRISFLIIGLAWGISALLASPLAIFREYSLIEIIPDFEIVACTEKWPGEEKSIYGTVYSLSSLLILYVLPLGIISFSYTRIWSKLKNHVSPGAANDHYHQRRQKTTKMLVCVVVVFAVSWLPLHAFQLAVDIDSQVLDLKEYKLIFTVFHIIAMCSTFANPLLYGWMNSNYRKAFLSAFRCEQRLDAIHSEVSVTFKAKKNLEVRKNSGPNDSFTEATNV
Vasopressin V2 receptor (Homo sapiens), sequence (P30518 whole entry): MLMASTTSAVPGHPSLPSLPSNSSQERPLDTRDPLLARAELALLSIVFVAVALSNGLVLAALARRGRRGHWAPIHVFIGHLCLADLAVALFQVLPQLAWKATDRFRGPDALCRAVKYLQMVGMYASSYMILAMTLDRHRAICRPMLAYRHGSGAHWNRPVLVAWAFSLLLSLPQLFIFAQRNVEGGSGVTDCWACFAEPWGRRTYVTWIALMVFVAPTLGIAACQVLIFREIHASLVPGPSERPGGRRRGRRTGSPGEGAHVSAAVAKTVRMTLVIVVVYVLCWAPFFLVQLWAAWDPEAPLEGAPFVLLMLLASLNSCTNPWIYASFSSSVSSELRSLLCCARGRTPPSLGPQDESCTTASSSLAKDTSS
Nociceptin receptor (Homo sapiens), sequence (P41146 whole entry): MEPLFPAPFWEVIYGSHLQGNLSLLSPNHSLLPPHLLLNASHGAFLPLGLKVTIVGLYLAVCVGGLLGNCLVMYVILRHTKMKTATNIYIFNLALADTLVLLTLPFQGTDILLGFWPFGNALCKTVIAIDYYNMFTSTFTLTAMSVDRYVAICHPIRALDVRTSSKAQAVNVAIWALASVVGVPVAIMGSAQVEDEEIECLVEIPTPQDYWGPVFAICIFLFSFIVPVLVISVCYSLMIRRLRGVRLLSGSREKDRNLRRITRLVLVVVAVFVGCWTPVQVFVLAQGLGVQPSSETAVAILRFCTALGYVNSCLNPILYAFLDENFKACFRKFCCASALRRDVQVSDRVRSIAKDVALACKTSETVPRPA

N[C@]1(C(=O)O)[C@H]2[C@@H](C[C@@H]1F)[C@@H]2C(=O)O
Activity [1]: inactive
Activity [2]: inactive
Activity [3]: inactive
Activity [4]: inactive
Activity (Homo sapiens [5]): inactive
Activity (Homo sapiens [6]): inactive
Activity [7]: inactive
Activity [8]: inactive
Activity (Homo sapiens [9]): inactive
Activity (Homo sapiens [10]): inactive
Activity (Homo sapiens [11]): inactive
Activity (Homo sapiens [12]): inactive
Activity [13]: inactive
Activity [14]: inactive
Activity [15]: inactive
Activity [16]: inactive
Activity [17]: inactive
Activity [18]: inactive
Activity [19]: inactive
Activity [20]: inactive
Activity [21]: inactive
Activity [22]: inactive
Activity [23]: inactive
Activity [24]: inactive
Activity [25]: inactive
Activity (Homo sapiens [26]): inactive
Activity [27]: inactive
Activity (Homo sapiens [28]): inactive
Activity [29]: inactive
Activity [30]: inactive
Activity [31]: inactive
Activity (Homo sapiens [32]): inactive
Activity [33]: inactive
Activity [34]: inactive
Activity (Homo sapiens [35]): inactive
Activity (Homo sapiens [36]): inactive
logD ([37]; 1.5 h): -4.02
Activity [38]: inactive
Activity [39]: inactive
Activity [40]: inactive
Activity [41]: inactive
Activity [42]: inactive
Activity [43]: inactive

CC(C)[C@@H]1CC[C@@H](C)C[C@H]1OC(=O)O[C@@H](C)OC(=O)[C@H]1[C@@H]2C[C@H](F)[C@@](N)(C(=O)O)[C@@H]21
Activity [1]: inactive
Activity [2]: inactive
Activity [3]: inactive
Activity [4]: inactive
Activity (Homo sapiens [5]): inactive
Activity (Homo sapiens [6]): inactive
Activity [7]: inactive
Activity [8]: inactive
Activity (Homo sapiens [9]): inactive
Activity (Homo sapiens [10]): inactive
Activity (Homo sapiens [11]): inactive
Activity (Homo sapiens [12]): inactive
Activity [13]: inactive
Activity [14]: inactive
Activity [15]: inactive
Activity [16]: inactive
Activity [17]: inactive
Activity [18]: inactive
Activity [19]: inactive
Activity [20]: inactive
Activity [21]: inactive
Activity [22]: inactive
Activity [23]: inactive
Activity [24]: inactive
Activity [25]: inactive
Activity (Homo sapiens [26]): inactive
Activity [27]: inactive
Activity (Homo sapiens [28]): inactive
Activity [29]: inactive
Activity [30]: inactive
Activity [31]: inactive
Activity (Homo sapiens [32]): inactive
Activity [33]: inactive
Activity [34]: inactive
Activity (Homo sapiens [35]): inactive
Activity (Homo sapiens [36]): inactive
logD at 1.5 h ([37]; n-octanol/phosphate buffered saline): > 2.04
Activity [38]: inactive
Activity [39]: inactive
Activity [40]: inactive
Activity [41]: inactive
Activity [42]: inactive
Activity [43]: inactive
